Measurements from patent publication US8013006B2.
Read-outs that look alike come from different tables or passages of the source.

What was measured:
[1] = tested on: HCV replicon; assay: microbe, parasite or virus in culture; type: cell-based; conditions: Hepatitis C virus, 48 h

Row | SMILES | IC50 ([1]; read-out: Replicon IC5Os μM) [µM] | melting point [°C] | IC50 ([1]; read-out: Replicon IC5Os) [µM]
1 | CCn1c(C#Cc2cccc(NC(=O)C3CCC3)c2)c(C#N)c2ccc(OC)cc21 [Compound 213] | 0.5 to 2 | 165 to 168 | –
2 | CCn1c(NC(=O)C2CC2)c(C#N)c2ccc(OC)cc21 [Compound 216] | 0.5 to 2 | 261 | –
3 | CCn1c(NC(=O)OCC(C)C)c(C#N)c2ccc(OC)cc21 [Compound 217] | < 0.5 | 272 to 273 | –
4 | CCn1c(C#Cc2cccc(NC=O)c2)c(C#N)c2ccc(OC)cc21 [Compound 218] | 0.5 to 2 | 174 to 177 | –
5 | CCn1c(C#Cc2cccc(NC(=O)COC)c2)c(C#N)c2ccc(OC)cc21 [Compound 219] | 0.5 to 2 | 145 to 149 | –
6 | CCn1c(C#Cc2cccc(NC(=O)NCCCl)c2)c(C#N)c2ccc(OC)cc21 [Compound 221] | 0.5 to 2 | 195 to 200 | –
7 | COc1ccc2c(C#N)c(C#Cc3ccc(C(C)(C)C)cc3)[nH]c2c1 [Compound 233] | 0.5 to 2 | 232 to 234 | –
8 | CCn1c(-c2ccc(NS(C)(=O)=O)cc2)c(C#N)c2cc(OC)ccc21 [Compound 243] | < 0.5 | 194 to 198 | –
9 | CCCS(=O)(=O)Nc1ccc(-c2c(C#N)c3ccc(OC)cc3n2CC)cc1 [Compound 251] | 0.5 to 2 | 186 to 187 | –
10 | CCn1c(-c2ccc(NS(=O)(=O)CCCCl)cc2)c(C#N)c2ccc(OC)cc21 [Compound 252] | 0.5 to 2 | 176 to 177 | –
11 | CCn1c(-c2ccc(OCCNS(=O)(=O)CC)cc2)c(C#N)c2ccc(OC)cc21 [Compound 269] | 0.5 to 2 | 153 to 158 | –
12 | CCn1c(-c2cccc(S(=O)(=O)NC)c2)c(C#N)c2ccc(OC)cc21 [Compound 331] | – | 160 to 165 | 0.5 to 2
13 | CCn1c(-c2ccc3c(c2)oc(=O)n3C)c(C#N)c2ccc(OC)cc21 [Compound 341] | – | 227 to 230 | 0.5 to 2
14 | CCS(=O)(=O)Nc1ccc(-c2c(C#N)c3ccc(OC)cc3n2C)cc1 [Compound 345] | – | 191 to 192 | 0.5 to 2
15 | CCCn1c(-c2ccc(NS(C)(=O)=O)cc2)c(C#N)c2ccc(OC)cc21 [Compound 346] | – | 178 to 180 | < 0.5
16 | CCn1c(-c2ccc(NS(=O)(=O)CC)cc2)c(C#N)c2ccc(C(F)(F)F)cc21 [Compound 366] | – | 223 to 225 | < 0.5

Row | SMILES | IC50 ([1]; read-out: Replicon IC5Os μM) [µM] | melting point [°C] | IC50 ([1]; read-out: Replicon IC5Os) [µM]
17 | CCCS(=O)(=O)Nc1ccc(-c2c(C#N)c3ccc(C(F)(F)F)cc3n2CC)cc1 [Compound 367] | – | 225 to 227 | 0.5 to 2
18 | CCn1c(-c2ccc(NS(=O)(=O)CCCCl)cc2)c(C#N)c2ccc(C(F)(F)F)cc21 [Compound 369] | – | 174 to 177 | 0.5 to 2
19 | CCn1c(-c2ccc(S(N)(=O)=O)cc2)c(C#N)c2cc(Cl)ccc21 [Compound 408] | – | 231 to 235 | 0.5 to 2
20 | CCOc1ccc2c(C#N)c(-c3ccc(NS(C)(=O)=O)cc3)n(C)c2c1 [Compound 413] | – | 184 to 185 | < 0.5
21 | CCOc1ccc2c(C#N)c(-c3ccc(NS(C)(=O)=O)cc3)n(CC)c2c1 [Compound 415] | – | 163 to 165 | < 0.5
22 | CCOc1ccc2c(C#N)c(-c3ccc(NS(=O)(=O)CC)cc3)n(CC)c2c1 [Compound 416] | – | 173 to 175 | < 0.5
23 | CCCn1c(-c2ccc(NS(=O)(=O)CC)cc2)c(C#N)c2ccc(OCC)cc21 [Compound 418] | – | 183 to 184 | < 0.5
24 | CCn1c(-c2ccc(NC(C)=O)cc2)c(C#N)c2ccc(C(F)(F)F)cc21 [Compound 420] | – | 241 to 243 | 0.5 to 2
25 | CCC(=O)Nc1ccc(-c2c(C#N)c3ccc(C(F)(F)F)cc3n2CC)cc1 [Compound 422] | – | 259 to 261 | 0.5 to 2
26 | CCn1c(-c2ccc(S(=O)(=O)NC)cc2)c(C#N)c2cc(Cl)ccc21 [Compound 430] | – | 180 to 186 | 0.5 to 2
27 | CCn1c(-c2ccc(N/C(C)=C/C#N)cc2)c(C#N)c2ccc(OC)cc21 [Compound 456] | – | 157 to 159 | 0.5 to 2
28 | CCn1c(-c2ccc(S(N)(=O)=O)cc2)c(C#N)c2cc(-c3cccc(OC)c3)ccc21 [Compound 461] | – | 200 to 205 | < 0.5
29 | CCn1c(-c2ccc(S(=O)(=O)NC)cc2)c(C#N)c2cc(-c3cccc(OC)c3)ccc21 [Compound 462] | – | 135 to 140 | < 0.5
30 | CCOc1ccc2c(C#N)c(-c3ccc(NS(=O)(=O)CC)cc3)n(CC(C)C)c2c1 [Compound 470] | – | 178 to 180 | < 0.5
31 | CCOc1ccc2c(C#N)c(-c3ccc(NS(C)(=O)=O)cc3)n(CC(C)C)c2c1 [Compound 471] | – | 154 to 156 | < 0.5
32 | CCOc1ccc2c(C#N)c(-c3ccc(NS(C)(=O)=O)cc3)n(C3CCC3)c2c1 [Compound 472] | – | 215 to 217 | < 0.5
